# Reference: publication PMC13534584, “ATP13A4 gates extracellular polyamine levels to control excitatory synaptogenesis” (Nature Communications, 2026)
# Residue numbers refer to the chain shown, from its start.
# Assays:
# Experiment in all cases: ADP-Glo Max ATPase assay, dose-response
# Type in all cases: biochemical
# Conditions in all cases: 5 mM ATP, 11 mM MgCl2, 100 mM KCl, MOPS-KOH pH 7, 37 °C, 0.001% DDM
# [1] = molecular target: T1, hATP13A4 (Homo sapiens, UniProt Q4VNC1)
# T1 construct: gene ATP13A4; solubilised in DDM
# T1 sequence (Q4VNC1 1-1196): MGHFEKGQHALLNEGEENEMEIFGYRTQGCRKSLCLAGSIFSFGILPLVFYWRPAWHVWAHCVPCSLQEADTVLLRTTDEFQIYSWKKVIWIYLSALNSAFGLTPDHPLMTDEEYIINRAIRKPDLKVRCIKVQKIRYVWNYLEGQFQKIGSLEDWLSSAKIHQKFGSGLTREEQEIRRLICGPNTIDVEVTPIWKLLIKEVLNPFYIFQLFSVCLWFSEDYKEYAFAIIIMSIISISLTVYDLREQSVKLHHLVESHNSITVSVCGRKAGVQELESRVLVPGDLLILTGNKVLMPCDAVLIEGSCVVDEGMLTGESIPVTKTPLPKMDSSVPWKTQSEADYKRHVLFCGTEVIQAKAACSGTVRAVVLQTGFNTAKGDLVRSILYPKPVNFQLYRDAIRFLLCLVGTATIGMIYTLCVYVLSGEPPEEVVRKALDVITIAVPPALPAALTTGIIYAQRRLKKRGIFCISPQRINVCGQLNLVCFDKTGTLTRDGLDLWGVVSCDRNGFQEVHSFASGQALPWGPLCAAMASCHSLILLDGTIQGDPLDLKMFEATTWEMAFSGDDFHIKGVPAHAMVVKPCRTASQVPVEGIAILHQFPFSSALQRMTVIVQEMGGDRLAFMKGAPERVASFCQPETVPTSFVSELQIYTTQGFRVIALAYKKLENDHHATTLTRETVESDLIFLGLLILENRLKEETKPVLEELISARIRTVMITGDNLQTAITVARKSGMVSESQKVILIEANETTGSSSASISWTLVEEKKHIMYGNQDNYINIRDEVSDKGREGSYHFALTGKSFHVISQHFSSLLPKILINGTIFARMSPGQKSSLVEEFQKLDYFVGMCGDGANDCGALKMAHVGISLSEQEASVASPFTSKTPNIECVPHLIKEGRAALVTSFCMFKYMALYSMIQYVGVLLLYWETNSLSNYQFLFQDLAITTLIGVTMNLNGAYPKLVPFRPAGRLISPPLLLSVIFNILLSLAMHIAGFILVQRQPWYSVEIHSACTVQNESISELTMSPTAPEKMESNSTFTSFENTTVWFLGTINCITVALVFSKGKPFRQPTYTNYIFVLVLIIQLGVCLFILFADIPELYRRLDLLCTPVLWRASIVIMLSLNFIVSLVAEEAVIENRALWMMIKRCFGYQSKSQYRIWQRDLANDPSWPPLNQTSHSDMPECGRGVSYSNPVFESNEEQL
# [2] = molecular target: T2, hATP13A4 (Homo sapiens, UniProt Q4VNC1, A356V)
# T2 construct: gene ATP13A4; solubilised in DDM
# T2 sequence (Q4VNC1 1-1196 A356V): T1 sequence (Q4VNC1 1-1196) with A356V
# [3] = molecular target: T3, hATP13A4 (Homo sapiens, UniProt Q4VNC1, E276K)
# T3 construct: gene ATP13A4; solubilised in DDM
# T3 sequence (Q4VNC1 1-1196 E276K): T1 sequence (Q4VNC1 1-1196) with E276K
Structure (SMILES),ATPase stimulation [1],spermidine-dependent ATPase activity [2],spermidine-dependent ATPase activity [3]
NCCCCCN [cadaverine],"Putrescine, spermidine, spermine, cadaverine, and acetylated polyamine derivatives each stimulated ATPase activity",–,–
"NCCCNCCCCNCCCN [SPM, spermine]",ATP13A4 exhibits the highest apparent affinity for spermine and spermidine,–,–
"NCCCCNCCCN [SPD, spermidine]",each stimulated ATPase activity of purified wild-type (WT) hATP13A4 in a concentration-dependent manner,"spermidine-dependent ATPase activity of purified, solubilized ATP13A4 (WT and disease-associated variants p.E276K, p.A356V",p.E276K reduces spermidine-stimulated ATPase activity to a similar extent as p.A356V and p.E646D
